Patent US10478421B1, “Sortilin binding compounds, formulations, and uses thereof” (University of Florida, priority 2016, dated 2019)

Assays:
[1] = target: T1, hsortilin (Homo sapiens, UniProt Q99523); experiment: SPR binding of 541 and 984 to hsortilin (Example 4)
T1 sequence (Q99523 78-831): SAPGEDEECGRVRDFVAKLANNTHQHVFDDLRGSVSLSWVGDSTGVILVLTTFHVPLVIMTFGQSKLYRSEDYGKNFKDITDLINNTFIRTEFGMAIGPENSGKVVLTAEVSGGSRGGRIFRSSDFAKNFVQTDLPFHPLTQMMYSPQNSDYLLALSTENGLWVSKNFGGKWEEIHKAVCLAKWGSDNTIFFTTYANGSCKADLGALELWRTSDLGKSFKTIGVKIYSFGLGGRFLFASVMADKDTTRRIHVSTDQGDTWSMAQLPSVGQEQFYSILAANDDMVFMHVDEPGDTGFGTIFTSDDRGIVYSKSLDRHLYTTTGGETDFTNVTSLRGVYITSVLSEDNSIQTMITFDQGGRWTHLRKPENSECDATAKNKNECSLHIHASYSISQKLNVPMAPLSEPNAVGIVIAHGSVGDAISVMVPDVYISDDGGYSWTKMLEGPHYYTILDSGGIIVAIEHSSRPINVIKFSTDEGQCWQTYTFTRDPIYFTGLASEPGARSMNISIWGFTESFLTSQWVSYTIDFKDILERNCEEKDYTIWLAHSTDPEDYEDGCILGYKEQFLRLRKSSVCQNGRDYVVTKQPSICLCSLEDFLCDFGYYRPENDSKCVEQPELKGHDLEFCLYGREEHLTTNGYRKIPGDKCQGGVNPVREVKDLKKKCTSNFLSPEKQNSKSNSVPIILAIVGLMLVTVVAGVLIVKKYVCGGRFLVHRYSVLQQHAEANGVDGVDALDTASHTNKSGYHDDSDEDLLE
Protocol: Due to inherent fluorescence of 541 small molecule, thermophoresis was performed in two different buffer conditions (PBS n=3 and MST n=2) and at two sets of concentration ranges. […] SPR indicates a high and low affinity binding site of cpd984 to human sortilin of hsortilin with Kd of about 200 μM and about 20 nM.

[2] = tested on: McA cells; experiment: VLDL-B100 secretion by McA cells (immuno slot blotting); assay type: cell-based, rat; settings: for increase in VLDL-B100 secretion over the no cpd984 control: 18 h, 1% BSA/DMEM, insulin sensitive McA cells; for effect on VLDL-B100 secretion: increasing concentrations
Protocol: McArdle RH-7777 cells (McA cells) were cultured as previously described in serum containing complete Dulbecco's Modified Eagle's Medium (cDMEM). To induce insulin sensitivity, McA cells at 50-60% confluency were incubated for 18 h in serum-free media containing DMEM containing 1% (w/v) BSA (1% BSA/DMEM). Human sortilin (hsortilin) (Ser78-Asn755) with C-terminal 6-His tag was from R&D Systems, Inc., (Minneapolis, Minn.). Plasma from fasted Sprague Dawley rats (BioreclamationIVT, Westbury, N.Y.) was used to prepare VLDL apo B standards. Mouse monoclonal antibody to rat B100 was prepared in our laboratory and characterized previously. Rabbit anti-sortilin antibody was from GeneTex (GTX54854, Irvine, Calif.) or from Abcam (ab16640, Cambridge, Mass.). Rabbit anti-p-AKT (9271), rabbit anti-AKT (9272), and rabbit anti-insulin receptor β-subunit (IRβ, 3025) were from Cell Signaling Technology (Danvers, Mass.). Mouse anti-pY Platinum 4G10 was from EMD Millipore (Temecula, Calif.). (Horseradish peroxidase linked donkey anti-rabbit IgG (NA9340), sheep anti-mouse IgG (NXA931) and ECL Prime Western Blotting Detection Reagent (RPN2232) were from GE Healthcare (Buckinghamshire, UK). All other materials and reagents were essentially as described previously. Compound 98,477,898 (25)-1-methyl-N-{3-[(3-phenylpropanoyl)-amino]phenyl}pyrrolidine-2-carboxamide (cpd984) was obtained from ChemBridge Corp. (San Diego, Calif.). A stock solution of cpd984 (10 mM) was prepared in DMSO, and stored in aliquots at −20° C.
Experimental media were adjusted to 1% (v/v) protease inhibitor cocktail I (EMD Millipore) and to a salt density of 1.019 g/ml by addition of a solution of NaBr (d=1.495 g/ml). VLDL was isolated by ultracentrifugation in a L-70 Ultracentrifuge (Beckman Coulter, Inc., Fullterton, Calif.) using a 50Ti rotor (200,000×g, 18 h, 14° C.). Following centrifugation, the top 1.5-2.0 ml VLDL fraction was removed using a syringe and weighed to determine volume. VLDL samples were applied in triplicate wells (0.2-0.4 ml per well) in a Bio-Dot® SF apparatus (Bio-Rad). Two PVDF membranes were used together for blotting: the top was Immobilon-P (IPVH09120 SF) and the bottom was Immobilin-PSQ (ISEQ09120 SF); both were obtained from EMD Millipore. VLDL apo B standards were prepared from rat plasma VLDL and total apo B (B100 and B48) and B100 content were determined on stained gels following SDS-PAGE separation. VLDL-apo B standards in TBS were slotted in duplicate alongside test samples. After filtration, 0.4 ml of TBS was added as a wash. […] At this stage slot blots were evaluated similarly to immunoblotting. After chemiluminescence development and B100 quantitation, slot blots were stripped by incubation in Restore™ PLUS for 15 min at room temperature (Thermo Scientific, Rockford, Ill.) and were reblocked overnight at 4° C. Total apo B (B100 and B48) present in VLDL was then evaluated following incubation with rabbit polyclonal anti-rat apo B. The bottom PVDF membrane was carried through the entire procedure to assure there was no “bleed through” of test samples. VLDL-apo B and VLDL-B100 content were calculated from standard curves generated by VLDL apo B standards. […]
McArdle rat hepatocytes were incubated with increasing concentrations of cpd984 or cpd541 for 14-18 h and media were collected. […] Binding was detected by chemiluminescence detection and quantified using Bio-Rad software. […]

[3] = tested on: PCSK9; experiment: Cellular PCSK9 by immunoblot in McA cells; assay type: cell-based, rat; settings: 10 μM, 18 h, 1% BSA/DMEM
Protocol: McA cells were incubated in 1% BSA/DMEM with DMSO, 541 (10 μM) or 984 (10 μM) for 18 h. Cellular proteins were extracted and analyzed by IB for LDLR (LS-C146979, 1:2000) (FIG. 5A) or PCSK9 (Ab125251, 1:2000) (FIG. 5B) using HRP-linked secondary antibody and ECL detection. Loading controls included β-ACTIN (Rockland ph600-401-886) and GAPDH (cb1001mAb (6C5). Band intensities were measured using ChemiDocXRS+ system and evaluated using ImageLab 5.1 software (BioRad). Results are average of triplicates ±S.D. PCSK9 is a known ligand for sortilin where sortilin acts as a chaperone for PCSK9 secretion.

| Kd ([1]; high affinity binding site) [µM] | Kd ([1]; low affinity binding site) [µM] | Kd ([1]; two trials) [µM] | SMILES | increase in VLDL-B100 secretion over the no cpd984 control ([2]; 10 μM) [%] | increase in VLDL-B100 secretion over the no cpd984 control ([2]; 25 μM) [%] | effect of 984 on VLDL-B100 and VLDL-apoE secretion when given in combination with 541 ([2]; combination of both compounds, 0.1-25 μM, 14-18 h) | effect on VLDL-B100 secretion ([2]; 14-18 h) | effect on cellular PCSK9 [3] |
| --- | --- | --- | --- | --- | --- | --- | --- | --- |
| ~0.02 | ~200 |  | CN1CCC[C@H]1C(=O)Nc1cccc(NC(=O)CCc2ccccc2)c1 [cpd984, (2S)-1-methyl-N-{3-[(3-phenylpropanoyl)-amino]phenyl} pyrrolidine-2-carboxamide] | 30 | 61 | abrogated | increases VLDL-B100 secretion | accumulation of cellular PCSK9 |
|  |  | 7.5 | CC(NC(=O)c1ccccc1NCC(=O)O)c1ccccc1 (stereo not shown) [cpd541] |  |  |  | decreases VLDL-B100 secretion | no biological difference |
